Legend:
[1] = Plasma protein binding by equilibrium dialysis; assay type: in vitro ADME; conditions: rat, 37° C., plasma vs isotonic phosphate buffer pH 7.4, read-out: % free in plasma
Procedure: (§1) Measurement of Plasma Levels and Plasma Protein Binding Following Oral Administration to Rats
The plasma protein binding of compounds was measured using the equilibrium dialysis technique (W. Lindner et al, J. Chromatography, 1996, 677, 1-28 ). Compound was dialysed at a concentration of 20 μM for 18 hours at 37° C. with plasma and isotonic phosphate buffer pH 7.4 (1 ml of each in the dialysis cell). A Spectrum® 20-cell equilibrium dialyser was used together with Teflon, semi-micro dialysis cells and Spectra/Por®2 membrane discs with a molecular weight cut off 12-14000 Dalton, 47 mm (supplied by PerBio Science UK Ltd, Tattenhall, Cheshire). Plasma and buffer samples are removed following dialysis and analysed using HPLCUV/MS (high performance liquid chromatography with UV and mass spec detection) to give the % free level in plasma.

[2] = Plasma levels following oral administration to rats; assay type: in vivo; conditions: rat, oral gavage; including both bound and free; normalised dose of 1 mg compound per kilogram of rat body weight
Procedure: as §1
Planetary Milled compounds [15 mins, 500 rpm, 5 Zirconium Balls, in a Puluerisette 7 Mill (Glen Creston Ltd, Stanmore, Middlesex, UK)] were suspended in 0.5% HPMC Tween and dosed to High Fat Fed (Research Diets, D12451, ad lib feeding 14 days) Female Alderley Park Zucker or Alderley Park Wistar rats at rate of 5 mls/kg, at doses between 0.3 and 10 mg/kg by oral gavage.
Samples of plasma were obtained either by conscious blood sampling or terminal blood sampling as follows:
Conscious blood sampling (for compound level or blood chemistry)—Intravenous blood samples were taken from tail vein using 600 μl Starstedt Multivette (EDTA) and 22 G needle at the required time point. […]
The reconstituted samples were then analysed using high performance liquid chromatography with tandem mass spectrometry detection (HPLC-MS-MS)”. […]
The concentration of test samples was determined from the ratio of the peak height of the test sample to the peak height of the internal standard. The concentration of the test sample was calculated with reference to a standard curve relating the ratio to the concentration prepared by using known concentrations of test sample added to samples of rat plasma using (3-isopropoxy-5-benzyoxy-benzoyl)amino pyridine 3-carboxylic acid as an internal standard, treated as described above.

fraction unbound at 18 hours, 20 μM [1]: 0.0042
Compound: COC[C@H](C)Oc1cc(O[C@@H](C)Cc2ccccc2OC)cc(C(=O)Nc2ccc(C(=O)O)cn2)c1 [Example 2.1, 6-{3-[(1S)-1-methyl-2-(2-methoxyphenyl)ethoxy]-5-[(1S)-2-methoxy-1-methylethoxy]-benzoylamino}-3-pyridine carboxylic acid]
Peak Blood levels [2]: 1.29 µM

Reference: patent publication US20070078168A1, “PYRIDINE CARBOXYLIC ACID DERIVATIVES AS GLUCOKINASE MODULATORS” (priority 2003, published 2007)
